Data from patent US20230150970A1, “AMINOPYRIMIDINE DERIVATIVES AND THEIR USE AS ARYL HYDROCARBON RECEPTOR MODULATORS” (DONG-A ST CO., LTD., priority 2020, published 2023).
Read-outs that look alike come from different tables or passages of the source.

What was measured:
[1] = biological target: T1, AhR (Homo sapiens, UniProt P35869); test: In Vitro Assay 3: XRE-luciferase reporter assay, agonism in human cell line (HepG2); assay type: cell-based; parameters: endogenous in cells; host or cells: HepG2; details: HepG2, tryptophan free medium, 6 hours, no agonist, read-out: Assay 3: AhR-Luc Human Agonism (EC50)
T1 sequence (P35869 11-848): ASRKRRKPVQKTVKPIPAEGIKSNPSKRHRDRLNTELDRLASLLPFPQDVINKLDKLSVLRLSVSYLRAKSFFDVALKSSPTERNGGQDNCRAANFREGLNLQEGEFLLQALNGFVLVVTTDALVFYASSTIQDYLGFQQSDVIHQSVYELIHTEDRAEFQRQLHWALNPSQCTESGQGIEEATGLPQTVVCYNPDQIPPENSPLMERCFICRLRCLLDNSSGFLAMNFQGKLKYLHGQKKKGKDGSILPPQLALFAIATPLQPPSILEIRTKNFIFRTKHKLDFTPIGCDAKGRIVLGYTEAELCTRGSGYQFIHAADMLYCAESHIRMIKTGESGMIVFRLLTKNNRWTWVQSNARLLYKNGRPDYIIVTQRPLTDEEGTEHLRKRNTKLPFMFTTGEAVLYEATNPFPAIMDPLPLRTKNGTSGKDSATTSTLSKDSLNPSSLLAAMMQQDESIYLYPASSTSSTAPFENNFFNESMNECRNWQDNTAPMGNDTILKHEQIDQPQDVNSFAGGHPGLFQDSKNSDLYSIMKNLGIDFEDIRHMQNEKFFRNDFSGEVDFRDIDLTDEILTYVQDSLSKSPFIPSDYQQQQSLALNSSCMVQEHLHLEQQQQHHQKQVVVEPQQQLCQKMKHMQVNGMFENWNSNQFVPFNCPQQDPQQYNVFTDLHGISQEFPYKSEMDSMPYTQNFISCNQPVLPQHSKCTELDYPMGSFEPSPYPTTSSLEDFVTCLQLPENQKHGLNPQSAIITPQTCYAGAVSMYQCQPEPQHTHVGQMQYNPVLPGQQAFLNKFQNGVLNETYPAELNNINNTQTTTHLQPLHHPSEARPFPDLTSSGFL
Description: In Vitro Assay 3: Agonism in Human Cell Line
HepG2 (human hepatoma cell line) cells co-transfected with XRE-Luc and Nano-Luc plasmids were plated in tryptophan free medium containing 1% of dialyzed fetal bovine serum and incubated overnight at 37° C. in a CO2 incubator. After 24 hours, cells were treated for 6 hours with test compounds or not. […] As a positive control, cells were incubated with TCDD.

[2] = biological target: T2, AhR (Mus musculus, UniProt P30561); test: In Vitro Assay 2: XRE-luciferase reporter assay, antagonism in mouse cell line (Hepa1c1c7); assay type: cell-based; details: 6 hours, read-out: Assay 2: AhR-Luc Mouse Antagonism (IC50)
T2 sequence (P30561 1-848): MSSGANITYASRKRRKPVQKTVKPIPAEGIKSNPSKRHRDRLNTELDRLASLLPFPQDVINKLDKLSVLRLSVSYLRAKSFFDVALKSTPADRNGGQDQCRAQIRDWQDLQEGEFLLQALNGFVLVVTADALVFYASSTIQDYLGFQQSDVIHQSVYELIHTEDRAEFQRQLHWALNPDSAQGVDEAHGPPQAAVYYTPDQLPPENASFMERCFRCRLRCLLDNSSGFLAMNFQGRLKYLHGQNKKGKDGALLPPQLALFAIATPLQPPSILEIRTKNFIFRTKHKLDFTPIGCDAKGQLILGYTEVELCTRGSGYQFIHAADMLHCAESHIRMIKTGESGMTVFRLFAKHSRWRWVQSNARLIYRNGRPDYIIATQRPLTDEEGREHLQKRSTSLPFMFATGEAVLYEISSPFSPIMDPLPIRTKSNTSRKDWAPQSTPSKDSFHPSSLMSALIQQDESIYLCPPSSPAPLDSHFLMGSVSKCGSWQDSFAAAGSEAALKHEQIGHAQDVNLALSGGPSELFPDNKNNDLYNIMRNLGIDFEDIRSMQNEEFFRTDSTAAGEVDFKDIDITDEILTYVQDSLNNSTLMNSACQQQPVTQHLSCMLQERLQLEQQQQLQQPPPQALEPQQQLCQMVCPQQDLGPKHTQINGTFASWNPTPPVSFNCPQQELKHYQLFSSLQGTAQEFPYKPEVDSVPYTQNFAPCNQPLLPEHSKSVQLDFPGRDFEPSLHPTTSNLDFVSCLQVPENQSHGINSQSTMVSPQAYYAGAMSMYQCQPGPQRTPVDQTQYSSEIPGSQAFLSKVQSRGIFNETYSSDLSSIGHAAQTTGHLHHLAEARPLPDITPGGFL
Description: In Vitro Assay 2: Antagonism in Mouse Cell Line
Hepa1c1c7 (murine liver cancer cell line) cells co-transfected with XRE-Luc and Nano-Luc plasmids were plated in complete medium and incubated overnight at 37° C. in a CO2 incubator. Following incubation, cells were treated with AhR activating ligands such as kynurenic acid, kynurenine (#) with or without test compounds for 6 hours.

[3] = biological target: T1, AhR; test: In Vitro Assay 4: endogenous AhR activity assay (CYP1A1 and CYP1B1 mRNA, qRT-PCR, HepG2 cells)
Description: In Vitro Assay 4: Endogenous AhR Activity Assay
HepG2 cells were seeded in 12-well plate (3×10^5 cells/well). A day after seeding, the cells were treated with TCDD (10 nM) alone or with compounds (123 nM) for 4 hours. Total RNA was extracted using Trizol (Thermo Fisher Scientific). cDNA synthesis and quantitative RT-PCR (qRT-PCR) assays were performed using PrimeScript™ RT Master Mix (TAKARA) and TB Green™ Premix Ex Taq™ II (TAKARA) in accordance with manufacturer's instruction. For the measurement of endogenous AhR activity, relative mRNA levels of CYP1A1 and CYP1B1 were quantitated relative to β-actin mRNA by the comparative Ct (ΔΔCt) method. The percent inhibitions were calculated according to:

[4] = biological target: T1, AhR; test: In Vitro Assay 1: XRE-luciferase reporter assay, antagonism in human cell line (HepG2); details: Assay 1: AhR-Luc Human Antagonism (IC50, nM), 6 hours
[5] = biological target: T1, AhR
[6] = values marked #: AhR activating ligand kynurenine
[7] = HepG2, read-out: CYP1A1 (% Inhibition)
[8] = HepG2, read-out: CYP1B1 (% Inhibition)
[9] = values marked *: kynurenine 50 μM
[10] = unmarked values: kynurenine 200 μM
[11] = unmarked values: AhR activating ligand kynurenic acid

| Molecule | EC50 ([1]; class in brackets of the cell) | EC50 ([1]; number of the cell) | IC50 [2, 6] | inhibition at 0.123 µM [3, 7] | inhibition at 0.123 µM [3, 8] | IC50 [4, 9] | IC50 [4, 10] | IC50 [2, 11] | IC50 [5] |
| --- | --- | --- | --- | --- | --- | --- | --- | --- | --- |
| O=C1CN(c2cc(-c3ccc(Cl)cc3)nc(-c3cccnc3)n2)CCN1 [Example 94, 4-(6-(4-chlorophenyl)-2-(pyridin-3-yl)pyrimidin-4-yl)piperazin-2-one] | > 10 µM | > 30 µM | 0.1 to 1 µM | 63.1% | 92.1% | 10 to 100 nM | – | – | – |
| OCC1CCN(c2cc(-c3ccc(N4CCOCC4)cc3)nc(-c3cccnc3)n2)CC1 [Example 268, (1-(6-(4-morpholinophenyl)-2-(pyridin-3-yl)pyrimidin-4-yl)piperidin-4-yl)methanol] | > 10 µM | > 30 µM | < 0.01 µM | 102% | – | – | < 10 nM | – | – |
| O[C@@H]1CN(c2cc(-c3ccc(Cl)cc3)nc(-c3cccnc3)n2)C[C@@H]1F [Example 235, (3R,4S)-1-(6-(4-chlorophenyl)-2-(pyridin-3-yl)pyrimidin-4-yl)-4-fluoropyrrolidin-3-ol] | – | 3.56 µM | 0.01 to 0.1 µM | 106% | 101% | < 10 nM | – | – | – |
| O[C@H]1CCN(c2cc(-c3ccc(Cl)cc3)nc(-c3cccnc3)n2)C1 [Example 137, (S)-1-(6-(4-chlorophenyl)-2-(pyridin-3-yl)pyrimidin-4-yl)pyrrolidin-3-ol] | > 10 µM | > 30 µM | – | 91.6% | 97.7% | – | < 10 nM | < 0.01 µM | – |
| O=C(CCO)N1CCN(c2cc(-c3ccc(Cl)cc3)nc(-c3cccnc3)n2)CC1 [Example 352, 1-(4-(6-(4-chlorophenyl)-2-(pyridin-3-yl)pyrimidin-4-yl)piperazin-1-yl)-3-hydroxypropan-1-one] | > 10 µM | > 30 µM | 0.01 to 0.1 µM | 87.2% | – | – | < 10 nM | – | – |
| OCC1CCN(c2cc(-c3ccc(C(F)(F)F)cc3)nc(-c3cccnc3)n2)CC1 [Example 226, (1-(2-(pyridin-3-yl)-6-(4-(trifluoromethyl)phenyl)pyrimidin-4-yl)piperidin-4-yl)methanol] | > 10 µM | > 30 µM | 0.01 to 0.1 µM | 108% | 101% | – | < 10 nM | – | – |
| CC[C@H](CO)Nc1cc(-c2ccc(Cl)cc2)nc(-c2cccnc2)n1 [Example 1, (R)-2-((6-(4-chlorophenyl)-2-(pyridin-3-yl)pyrimidin-4-yl)amino)butan-1-ol] | – | 0.0126 µM | 0.1 to 1 µM | 60% | 92% | 10 to 100 nM | – | – | – |
| O[C@H]1CCN(c2cc(-c3ccc(C(F)(F)F)cc3)nc(-c3cncc(F)c3)n2)C1 [Example 327, (S)-1-(2-(5-fluoropyridin-3-yl)-6-(4-(trifluoromethyl)phenyl)pyrimidin-4-yl)pyrrolidin-3-ol] | – | 1.72 µM | 0.01 to 0.1 µM | 106% | 101% | – | < 10 nM | – | – |
| CN1CCN(c2cc(-c3ccc(Cl)cc3)nc(-c3cccnc3)n2)CC1 [Example 105, 4-(4-chlorophenyl)-6-(4-methylpiperazin-1-yl)-2-(pyridin-3-yl)pyrimidine] | > 10 µM | > 30 µM | 0.1 to 1 µM | 59.2% | 88.4% | < 10 nM | – | – | – |
| 4-(4-chlorophenyl)-2-(pyridin-3-yl)-6-(4-(pyrimidin-2-yl)piperazin-1-yl)pyrimidine [Example 90] | – | – | – | – | – | – | – | – | 0.01 to 0.1 µM |
| O=S(=O)(CCO)N1CCN(c2cc(-c3ccc(Cl)cc3)nc(-c3cccnc3)n2)CC1 [Example 239, 2-((4-(6-(4-chlorophenyl)-2-(pyridin-3-yl)pyrimidin-4-yl)piperazin-1-yl)sulfonyl)ethan-1-ol] | > 10 µM | > 30 µM | – | 108% | 101% | – | < 10 nM | < 0.01 µM | – |
